In patent publication US9326934B2, “Drug delivery from rapid gelling polymer composition” (Angiotech International AG, priority 2002, dated 2016):

Assays:
[1] = tested on: THP-1 cells; experiment: TNF-alpha production by macrophages (ELISA); type: cell-based, human; conditions: 1 mg/mL opsonized zymosan, 24 hours, n=4, FIG. 8, read-out: IC50 TNFα production
Experimental: The human macrophage cell line, THP-1 is plated in a 12 well plate such that each well contains 1×10^6 cells in 2 mL of media containing 10% FCS. Opsonized zymosan is prepared by resuspending 20 mg of zymosan A in 2 mL of ddH2O and homogenizing until a uniform suspension is obtained. Homogenized zymosan is pelleted at 250 g and resuspended in 4 mL of human serum for a final concentration of 5 mg/mL. and incubated in a 37° C. water bath for 20 minutes to enable opsonization. Bay 11-7082 is prepared in DMSO at a concentration of 10^−2 M and serially diluted 10-fold to give a range of stock concentrations (10^−8 M to 10^−2 M) (J. Immunol. (2000) 165: 411-418; J. Immunol. (2000) 164: 4804-4811; J. Immunol. Meth. (2000) 235 (1-2): 33-40).
THP-1 cells are stimulated to produce TNFα by the addition of 1 mg/mL opsonized zymosan. […]
After a 24 hour stimulation, supernatants are collected to quantify TNFα production. TNFα concentrations in the supernatants are determined by ELISA using recombinant human TNFα to obtain a standard curve. […] The dilution of Capture Antibody used is lot-specific and is determined empirically. […] Stop Solution (2 NH2SO4) is then added to the wells and a yellow colour reaction is read at 450 nm with λ correction at 570 nm. Mean absorbance is determined from triplicate data readings and the mean background is subtracted. […]

[2] = tested on: human fibroblasts; experiment: Screening assay for cell proliferation (CYQUANT); type: cell-based; conditions: Fibroblast, 72 hours, n=4 replicate experiments, FIG. 6
Experimental: Fibroblasts at 70-90% confluency are trypsinized, replated at 600 cells/well in media in 96-well plates and allowed to attachment overnight. […] Each drug concentration is tested in triplicate wells.
To terminate the assay, the media is removed by gentle aspiration. […] Plates are incubated at room temperature, protected from light for 3-5 minutes.

Row | IC50 [1] | SMILES | IC50 [2]
1 | 810 nM | Cc1ccc(S(=O)(=O)/C=C/C#N)cc1 [Bay 11-7082] | 
2 |  | O=C1c2c(O)ccc(O)c2C(=O)c2c(NCCNCCO)ccc(NCCNCCO)c21 [Mitoxantrone, 9,10-Anthracenedione, 1,4-dihydroxy-5,8-bis[[2-[(2-hydroxyethyl)amino]ethyl]amino]-] | 20 nM
